Results: publication PMC10973839, “CHF6297: a novel potent and selective p38 MAPK inhibitor with robust anti-inflammatory activity and suitable for inhaled pulmonary administration as dry powder” (Frontiers in Pharmacology, 2024)

How the values were obtained:
human p38β = biological target: T1, human p38β (Homo sapiens, UniProt Q15759); assay: KINOMEscan competition binding assay (DiscoverX), p38β; settings: read-out: Kd (mean ± s.d.)
T1 construct: purchased DiscoverX
Text: (§1) The KINOMEscan® platform (DiscoverX) was used, which uses a novel and proprietary active site-directed competition binding assay to quantitatively measure the interactions between human p38 isoforms and the target compound.

HBSMCs = assay: CSE-evoked IL-8 release in human bronchial smooth muscle cells; type: cell-based
Experimental: Cigarette smoke extract (CSE) was generated as reported previously ([Moretto et al., 2012]). Briefly, aqueous CSE was obtained from the combustion of four cigarettes (Marlboro Red, 12 mg tar, 0.9 mg nicotine each) bubbled through 50 mL of the culture medium and subsequently filtered through a 0.2-μm-pore filter (Millipore, Billerica, MA). To ensure reproducibility among different CSE batches, the absorbance [optical density (OD)] measured at 320 nm was used as a measure of the “strength” of the extract. Dilutions were made with culture media to obtain the desired absorbance. The CSE was freshly prepared on the day of the experiment and immediately used after preparation. Human bronchial smooth muscle cells (HBSMCs) were seeded in DMEM with 10% FBS (50 U/mL penicillin, 0.05 mg/mL streptomycin, and 2 mM L-glutamine) in 48-well plates at a density of 10,000 cells/well, grown to ∼80%–90% confluence and incubated overnight in serum-free DMEM before treatments. All the treatments were performed in serum-free DMEM. The cells were pretreated for 30 min with either the vehicle or CHF6297 or losmapimod before stimulation with freshly prepared CSE, TNF-α, (1 ng/mL), or the vehicle for 18 h at 37°C. Human IL-8 was measured in the collected supernatants by use of a paired-antibody quantitative ELISA kit (BioSource International, Camarillo, CA).

[1] = system: TS-induced neutrophil influx in BALF; assay: BALF neutrophilia induced by tobacco smoke exposure in mice; type: in vivo, C57BL6J female mice; settings: for neutrophils in BALF: 4 days TS exposure
Experimental: C57BL6J female mice aged 9–10 weeks (Harlan Laboratories S.r.l) in groups of 8 were exposed, via whole-body inhalation, twice daily 1 h apart, for 4 consecutive days, to the tobacco smoke (TS) (generated using “Marlboro Gold: 9 mg of tar and 0.7 mg nicotine”) of two cigarettes/exposure on days 1 and 2, three cigarettes/exposure on day 3, and four cigarettes/exposure on the last exposure day in clear polycarbonate chambers (27 cm × 16 cm × 12 cm). The smoke was introduced into the exposure chambers (21100-790 Ugo Basile, Biological Research Instruments, Comerio, Varese, Italy), with the airflow generated by using a mechanical ventilator (7025 Rodent Ventilator, Ugo Basile). Each exposure chamber was connected to a different ventilator set at a rate of 100 mL/min (frequency: 50 strokes/min; volume: 2 mL/stroke). At regular intervals (after burning two cigarettes), the exposure chambers were opened and aired. Sham and control mice were exposed to air only in the same manner for the same duration of time.
CHF6297 (0.03 and 0.3 mg/kg) and budesonide (0.3 mg/kg), our reference compound and vehicle (0.2% Tween 80 in saline), respectively, were administered intranasally in a volume of 30 µL, 1 h before and 5 h after TS exposure under light isoflurane anesthesia.
A BAL was performed using a volume of 0.6 mL of phosphate-buffered saline that was gently instilled and withdrawn three times using a 12-mL syringe. BALF cells were separated by centrifugation (10 min at 3,070 g), and the supernatant was removed. The resulting cell pellet was resuspended in a known volume of PBS, and the total cell numbers were calculated by counting a stained (Turk’s stain) aliquot under a microscope using a hemacytometer. The cell pellet was resuspended to approximately 10^5 cells per ml, and cytospin slides were prepared by centrifugation (8 min at 72.26 g; Shandon Cytospin; Thermo Shandon Ltd., Runcorn, Cheshire, United Kingdom). The slides were air-dried and stained using Wright–Giemsa stain, following the manufacturer’s instructions. A differential cell count was performed using light microscopy. Approximately 400 cells were counted from each slide. The cells were identified using standard morphometric techniques.

rat p38α = rat p38α (Rattus norvegicus, UniProt P70618); assay: AlphaScreen kinase activity assay, rat p38α; type: biochemical
human p38α = biological target: T2, human p38α (Homo sapiens, UniProt Q16539); assay: KINOMEscan competition binding assay (DiscoverX), p38α; settings: read-out: Kd (mean ± s.d.)
T2 construct: purchased DiscoverX
Text: as §1

human p38β (MAPK11) = biological target: T3, human p38β (MAPK11) (Homo sapiens, UniProt Q15759); assay: AlphaScreen kinase activity assay, human p38β; type: biochemical
T3 construct: GST; purchased Invitrogen
Experimental: The inhibitory activity of CHF6297 was determined using an AlphaScreen® (PerkinElmer)-based kinase activity assay as previously described ([Armani et al., 2022]). Kinase reactions consisted of 25 mM 4-(2-hydroxyethyl)-1-piperazine ethanesulfonic acid (HEPES), pH 7.5; 10 mM MgCl2; 100 μM Na3VO4; 2 mM DTT; 0.05 mg/mL Tween^TM 20; 100 pM solution of p38α, p38β, p38δ, or p38γ (Invitrogen); 1% DMSO; and 0.3 μg/mL ATF-2 fusion protein (New England Biolabs). Compounds were incubated under these conditions for 2 h, at 25°C, prior to the initiation of kinase activity by the addition of 250 μM ATP. […] Detection was performed by measuring luminescence following the addition of AlphaScreen donor beads (PerkinElmer, 6765300) and Protein A AlphaScreen acceptor beads (PerkinElmer, 6760137), both at a final concentration of 20 μg/mL. IC50 values were determined from concentration–response curves. […]
CHF6297 was tested in biochemical enzymatic assays to determine its potency as an inhibitor of human p38α (MAPK14) and of the other human p38 isoforms, p38β (MAPK11), p38γ ([…]), and p38δ ([…]) ([Armani et al., 2022]). Activity in the primary screening assay was determined using AlphaScreen technology, in which a peptide (ATF2) is phosphorylated by the appropriate GST-tagged p38 protein isoform in the presence of CHF6297 at concentrations from semi-logarithmic dilutions. […]

BEAS-2B = assay: TNF-α-evoked IL-8 release; type: cell-based, human; settings: TNF-α 1 ng/mL; compared with the CSE-evoked assay
[2] = n = 3, read-out: IC50 (mean ± s.d.)

T3 sequence (Q15759 whole entry): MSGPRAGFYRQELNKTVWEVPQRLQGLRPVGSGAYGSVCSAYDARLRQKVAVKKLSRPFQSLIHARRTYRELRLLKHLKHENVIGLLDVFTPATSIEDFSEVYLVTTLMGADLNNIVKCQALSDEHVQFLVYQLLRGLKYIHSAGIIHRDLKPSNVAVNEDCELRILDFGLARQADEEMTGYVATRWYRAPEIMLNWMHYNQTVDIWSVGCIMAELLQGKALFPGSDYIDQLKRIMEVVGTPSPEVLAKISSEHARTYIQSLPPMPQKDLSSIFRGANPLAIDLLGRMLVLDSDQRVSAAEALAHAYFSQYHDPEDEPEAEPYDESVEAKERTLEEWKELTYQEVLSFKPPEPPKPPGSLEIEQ
rat p38α, sequence (P70618 whole entry): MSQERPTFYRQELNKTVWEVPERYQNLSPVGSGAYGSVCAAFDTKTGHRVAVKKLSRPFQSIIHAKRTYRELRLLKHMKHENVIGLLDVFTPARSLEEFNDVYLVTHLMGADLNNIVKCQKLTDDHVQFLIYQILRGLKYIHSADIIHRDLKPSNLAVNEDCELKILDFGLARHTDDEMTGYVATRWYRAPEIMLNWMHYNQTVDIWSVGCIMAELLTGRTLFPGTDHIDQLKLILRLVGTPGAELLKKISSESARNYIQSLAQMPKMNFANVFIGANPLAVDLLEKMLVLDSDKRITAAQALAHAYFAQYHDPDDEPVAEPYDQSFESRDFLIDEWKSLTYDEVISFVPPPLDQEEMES
T2 sequence (Q16539 whole entry): as the sequence (P70618 whole entry) above, with V17I, H48L, A263T, E321D, F332L counted along it
T1 sequence (Q15759 whole entry): as the sequence (Q15759 whole entry) above

With `C[C@H]1CCCCN1c1nnc2ccc(O[C@@H]3CC[C@H](NC(=O)Nc4cc(C(C)(C)C)nn4-c4cnn(CCN(C)C)c4)c4ccccc43)cn12` [CHF6297] the Kd (human p38β) was 1.11 ± 0.6 nM, the “maximum inhibition of IL-8” value (HBSMCs; CSE-evoked) was 100% and the IC50 (HBSMCs; Homo sapiens, 18 h) was 0.79 nM. For the same compound, the “% of inhibition of neutrophil recruitment” value ([1]; 0.03 mg/kg i.n., 1 h before and 5 h after TS) was 29.7 ± 15.3%, the “neutrophils in BALF” value ([1]; 0.03 mg/kg i.n.) was 0.4 ± 0.1 × 10^5 cells/mL and the “% inhibition of neutrophilia” value ([1]; 0.3 mg/kg i.n., 1 h before and 5 h after TS) was 62.0 ± 8.4%. The “neutrophils in BALF” value ([1]; 0.3 mg/kg i.n.) was 0.2 ± 0.1 × 10^5 cells/mL, the “IC50 fold-difference vs. human p38α” value (rat p38α) was 3.5 and the IC50 (rat p38α; [2]) was 0.5 ± 0.18 nM. For the same compound, the Kd (human p38α) was 0.24 ± 0.06 nM, the “IC50 fold-difference vs. human p38α” value (human p38β (MAPK11)) was 1.4 and the IC50 (human p38β (MAPK11); [2]) was 0.2 ± 0.017 nM. The “potency against IL-8 release evoked by TNF-α” value (BEAS-2B) was “comparable potency”.
